{"source": "patent US20140171415A1", "about": "“FUNNY CURRENT (IF) INHIBITORS FOR USE IN A METHOD OF TREATING AND PREVENTING HEART DISEASE IN CANINE” (Boehringer Ingelheim Vetmedica GmbH, priority 2012, published 2014)", "key": {"Ih channel": {"tested_on": "Ih channel", "conditions": "literature: Neuroscience 1994 (zatebradine), British Journal of Pharmacology 1998 (cilobradine); cited from earlier work"}, "healthy Beagle dogs": {"tested_on": "healthy Beagle dogs", "assay": "Radiotelemetric pharmacodynamic study, repeated once and twice daily oral administration", "format": "in vivo, dog", "conditions": "for minimum of the first derivative of the left ventricular pressure against time (LVdP/dtmin) / maximum of the first derivative of the left ventricular pressure against time (LVdP/dtmax) / decrease of heart rate: healthy Beagle dogs; for minimum of the first derivative of the left ventricular pressure against time (LVdP/dtmin): from −2700 mmHg/s; for maximum of the first derivative of the left ventricular pressure against time (LVdP/dtmax): increased from 2700 mmHg/s; for decrease of heart rate: 0.3 mg/kg bodyweight oral, 2 mg/ml oral suspension", "description": "A Radiotelemetric Study to Evaluate the Pharmacodynamic Effects of Cilobradine HCl 2 Mg/Ml Oral Suspension after Repeated Once and Twice Daily Oral Administration to Healthy Beagle Dogs\nCilobradine HCl 2 mg/ml oral suspension was given once or twice daily at doses of 0.3 mg/kg bodyweight to conscious, healthy Beagle dogs chronically implanted with a telemetry system. Heart rate, systolic blood pressure, diastolic blood pressure, aortic pressure, left ventricular pressure, electrocardiogram (ECG), and body temperature were recorded. Before each treatment sequence all dogs underwent a 24 hour pre-dosing measurement which served as a baseline (control) measurement. After dosing the dogs were left undisturbed for the duration of the study, which lasted 24 hours, with the exception of the second dosing 10-12 hours after the first treatment."}, "[1]": {"assay": "Lipophilicity profile of the active substance", "format": "physicochemical", "conditions": "neutral pH versus acidic pH", "text": "Usually, EC/HPMC films show a sustained release behavior that is independent of pH. […] This, together with the coating applied, may have led to a slower release."}, "anesthetized dogs": {"tested_on": "anesthetized dogs", "assay": "Cardiovascular and electrocardiographic effects in anesthetized dogs", "format": "in vivo, dog", "description": "Cardiovascular and Electrocardiographic Effects of Cilobradine (DKAH 3 CL) in Dogs:\nThe dose of 0.05 mg/kg reduced spontaneous HR by 23% whereas 0.1 mg/kg i.v. reduced HR by 42%. Systolic and diastolic pressure was not affected. The effective refractory times of the sinus and atrioventricular (AV) node increased with 0.05 mg/kg by 31% and 30% respectively."}, "[2]": {"tested_on": "conscious, chronically instrumented dogs", "assay": "Hemodynamic action in conscious, chronically instrumented dogs", "format": "in vivo, dog", "conditions": "2.5 mg/kg orally", "text": "Hyodynamic Action in Conscious, Chronically Instrumented Dogs:\nHR dropped by up to 40% while blood pressure was not affected. Left ventricular end-diastolic pressure rose. This effect on preload may be explained by prolongation of the filling period due to prolongation of diastolic duration. Renal blood flow was maintained and coronary blood flow decreased by up to 40% most likely as a consequence of a drop in myocardial oxygen demand."}, "conscious dogs": {"tested_on": "conscious dogs", "assay": "Heart rate and arterial blood pressure by telemetry in conscious dogs", "format": "in vivo, dog", "description": "Heart rate (HR) and arterial blood pressure (BP) were measured in conscious dogs using telemetry methodology. They received daily oral doses of 0.3 mg/kg over 5 days. HR measured prior drug administration was reduced from 64.0±6.81 beats per minute (bpm) to 50.5±5.54 bpm on day 5. maximal effect on HR were seen between 1.5 and 3.5 hours post-dosing and HR reached values between 45 and 53 bpm. No effect on arterial BP was seen."}, "[3]": {"conditions": "0.3 mg/kg bodyweight once daily and twice daily in comparison to control"}, "[4]": {"conditions": "0.3 mg/kg bodyweight once daily"}, "[5]": {"conditions": "0.3 mg/kg bodyweight twice daily"}}, "data": [{"smiles": "COc1ccc(CCN(C)CCCN2CCc3cc(OC)c(OC)cc3CC2=O)cc1OC", "note": "[zatebradine, reference compound]", "values": [{"measurement": "effect on the Ih channel", "setting": "Ih channel", "result": "can also be blocked"}]}, {"smiles": "COc1ccc(CCN2CCC[C@H](CN3CCc4cc(OC)c(OC)cc4CC3=O)C2)cc1OC.Cl", "note": "[cilobradine HCl, (+)-3-[(N-(2-(3,4-dimethoxy-phenyl)ethyl)-piperidin-3-(S)-yl)-methyl]-(7,8-dimethoxy-1,3,4,5-tetrahydro-2H-3-benzazepin-2-on hydrochloride)]", "values": [{"measurement": "inotropic effect (FIG. 1)", "setting": "healthy Beagle dogs; [3]", "result": "positive inotropic effect"}, {"measurement": "lusitropic effect (FIG. 2)", "setting": "healthy Beagle dogs; [3]", "result": "positive lusitropic effect"}, {"measurement": "minimum of the first derivative of the left ventricular pressure against time (LVdP/dtmin)", "setting": "healthy Beagle dogs; [4]", "result": "−3000", "unit": "mmHg/s"}, {"measurement": "maximum of the first derivative of the left ventricular pressure against time (LVdP/dtmax)", "setting": "healthy Beagle dogs; [4]", "result": 3000, "unit": "mmHg/s"}, {"measurement": "decrease of heart rate", "setting": "healthy Beagle dogs; repeated once daily", "result": "approximately 25%"}, {"measurement": "decrease of heart rate", "setting": "healthy Beagle dogs; repeated twice daily", "result": "~30", "unit": "%"}, {"measurement": "minimum of the first derivative of the left ventricular pressure against time (LVdP/dtmin)", "setting": "healthy Beagle dogs; [5]", "result": "−3550", "unit": "mmHg/s"}, {"measurement": "maximum of the first derivative of the left ventricular pressure against time (LVdP/dtmax)", "setting": "healthy Beagle dogs; [5]", "result": 3550, "unit": "mmHg/s"}, {"measurement": "lipophilicity profile", "setting": "[1]", "result": "slightly more lipophilic at neutral pH values"}]}, {"smiles": "COc1ccc(CCN2CCC[C@H](CN3CCc4cc(OC)c(OC)cc4CC3=O)C2)cc1OC", "note": "[Cilobradine, (+)-3-[(N-(2-(3,4-dimethoxy-phenyl)ethyl)-piperidin-3-(S)-yl)-methyl]-(7,8-dimethoxy-1,3,4,5-tetrahydro-2H-3-benzazepin-2-on)]", "values": [{"measurement": "increase of effective refractory time of the atrioventricular (AV) node", "setting": "anesthetized dogs; 0.05 mg/kg i.v.", "result": 30, "unit": "%"}, {"measurement": "increase of effective refractory time of the sinus node", "setting": "anesthetized dogs; 0.05 mg/kg i.v.", "result": 31, "unit": "%"}, {"measurement": "reduction of spontaneous HR", "setting": "anesthetized dogs; 0.05 mg/kg i.v.", "result": 23, "unit": "%"}, {"measurement": "reduction of spontaneous HR", "setting": "anesthetized dogs; 0.1 mg/kg i.v.", "result": 42, "unit": "%"}, {"measurement": "systolic and diastolic pressure", "setting": "anesthetized dogs; 0.05 or 0.1 mg/kg i.v.", "result": "not affected"}, {"measurement": "blood pressure", "setting": "[2]", "result": "not affected"}, {"measurement": "decrease of coronary blood flow", "setting": "[2]", "result": "up to 40%"}, {"measurement": "drop of HR", "setting": "[2]", "result": "up to 40%"}, {"measurement": "left ventricular end-diastolic pressure", "setting": "[2]", "result": "rose"}, {"measurement": "renal blood flow", "setting": "[2]", "result": "maintained"}, {"measurement": "effect on arterial BP", "setting": "conscious dogs; daily oral 0.3 mg/kg over 5 days", "result": "No effect"}, {"measurement": "HR measured prior drug administration on day 5", "setting": "conscious dogs; daily oral doses of 0.3 mg/kg over 5 days, reduced from 64.0±6.81 bpm", "result": "50.5±5.54", "unit": "bpm"}, {"measurement": "effect on the Ih channel", "setting": "Ih channel", "result": "can also be blocked"}]}]}
